In US20050171063A1, “Use of phosphono derivatives as anti-malarials” (priority 2003, published 2005):

Legend:
[1] = test system: P. falciparum; test: Effect of drug on P. falciparum in vitro: synchronized culture, Giemsa stained smear after 48 hrs; type: cell-based, Plasmodium falciparum
Procedure: Phosphono acetic acid was dissolved in normal saline and filter sterilized. The compound was added to the parasite culture at different concentrations ranging from 1-400 μm. The compound phosphono acetic acid was tested at the indicated doses using the experimental protocol as described below:
Protocol for Testing the Effect of Drug on P. falciparum for In Vitro Studies
The P. falciparum cultures were synchronized at first by sorbitol treatment. The compound of various concentrations was added to the 200 μl of synchronized P. falciparum culture (1% parasitemia). The parasitemia was checked by making Giemsa stained smear after 48 hrs of incubation at 37° C. The growth of P. falciparum was inhibited in dose-dependent manner, where 1 μM concentration yielded >90% inhibition (Plate 1). The bars represent the percent inhibition, whereas, the blue curve indicates the percentage of parasitemia.
Phosphono formic acid was dissolved in normal saline and filter sterilized. The compound was added to the parasite culture at different concentrations ranging from 1-10 μM. The growth of P. falciparum was inhibited in dose-dependent manner, where 10 μM concentration yielded −70% inhibition (FIG. 2).

[2] = test system: P. berghei; test: Effect on P. berghei infected mice (in vivo model), parasitemia by Giemsa stained blood smears; set-up: species or system BALB/c mice; conditions: 50 mg/kg of body weight, once a day for four days
Procedure: Effect of Phosphono Acetic Acid on P. berghei Infected Mice (In Vivo Model)
(§1) BALB/c mice (4-6 weeks old) were infected with 10^5 P. berghei parasites/mouse. After four days of infection, when phosphono acetic acid (dissolved in saline and filter sterilized) at a dose of either 25 mg/kg body weight, or 50 mg/kg body weight. The injection of phosphono acetic acid was continued, once a day, for four days. After the fourth day of injection, parasitemea was determined by making Geimsa stained blood smears from the mice.

[3] = test system: P. berghei; test: Effect of PAA on survival of infected mice; type: in vivo, BALB/c mice; conditions: dose in the range of about 1 to 50 mg/kg (embodiment)
Procedure: as §1
Effect of PAA on Survival of Infected Mice
The compound of various concentrations was added to the 200 μl of synchronized P. falciparum culture (1% parasitemia). The parasitemia was checked by making Giemsa stained smear after 48 hrs of incubation at 37° C. The compound, PAA was used at the doses of 25 mg/kg and 50 mg/kg body weight. The control group indicates the group of mice infected with the parasite, but with no drug given.

[4] = test system: 3D7 strain of P. falciparum; test: Microscopy of Giemsa-stained slides, 3D7 strain of P. falciparum; type: cell-based, Plasmodium falciparum; conditions: upon addition of PAA
From the text: The effect of Phosphono Acetic Acid on the 3D7 Strain of P. falciparum Giemsa-stained slides prepared for the experiment were examined under a microscope and represented in Plate 4. […] It is clear that PAA actually kills the parasite rather than simply inhibiting their growth (FIG. 4).

Compound	inhibition of growth of P. falciparum ([1]; 10 μM concentration)	inhibition of growth of P. falciparum ([1]; 1 μM concentration, 48 hrs, 1% parasitemia)	inhibits growth of P. falciparum ([1]; range of about 1 to 5 μM (embodiment))	inhibition of growth of P. berghei [2]	enhances the survival [3]	effect on parasite seen under microscope [4]
O=C(O)P(=O)(O)O [phosphono formic acid]	−70%	–	–	–	–	–
O=C(O)CP(=O)(O)O [phosphono acetic acid]	–	> 90%	about 100%	−60%	about 60%	disintegrated trophozoltes are seen
